The record followed here is patent US20240262804A1, “NITROGEN-CONTAINING HETEROCYCLIC KETONES, PREPARATION METHODS AND MEDICINAL USES THEREOF” (Hansoh Bio LLC, priority 2021, published 2024).

Molecules are shown by their SMILES. Marks after values point to notes of the source that are not given here.

In general, IC50 refers to the midpoint of a concentration-inhibition curve. By half-life is commonly meant the time in which the quantity being followed falls by half. A low value points to rapid decline.

One data set deals with bovine cardiac myosin (Bos taurus (Bovine), UniProt Q9BE39). As to the kind of experiment: Myosin inhibitory potency: PK/LDH-coupled ATPase assay on bovine skinned cardiac myofibrils. Particulars: pCa=6.25, 50 μM ATP, 25° C., read-out: myosin inhibition activity IC50. The data set is classed as biochemical. In a few lines: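 Bovine left-ventricle skinned myofibrils (1 mg/mL) in PM12 buffer pH 6.8 at pCa 6.25, 50 μM ATP, PK/LDH-coupled NADH depletion read at 340 nm, 25 °C.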
Chain of bovine cardiac myosin (Q9BE39 whole entry): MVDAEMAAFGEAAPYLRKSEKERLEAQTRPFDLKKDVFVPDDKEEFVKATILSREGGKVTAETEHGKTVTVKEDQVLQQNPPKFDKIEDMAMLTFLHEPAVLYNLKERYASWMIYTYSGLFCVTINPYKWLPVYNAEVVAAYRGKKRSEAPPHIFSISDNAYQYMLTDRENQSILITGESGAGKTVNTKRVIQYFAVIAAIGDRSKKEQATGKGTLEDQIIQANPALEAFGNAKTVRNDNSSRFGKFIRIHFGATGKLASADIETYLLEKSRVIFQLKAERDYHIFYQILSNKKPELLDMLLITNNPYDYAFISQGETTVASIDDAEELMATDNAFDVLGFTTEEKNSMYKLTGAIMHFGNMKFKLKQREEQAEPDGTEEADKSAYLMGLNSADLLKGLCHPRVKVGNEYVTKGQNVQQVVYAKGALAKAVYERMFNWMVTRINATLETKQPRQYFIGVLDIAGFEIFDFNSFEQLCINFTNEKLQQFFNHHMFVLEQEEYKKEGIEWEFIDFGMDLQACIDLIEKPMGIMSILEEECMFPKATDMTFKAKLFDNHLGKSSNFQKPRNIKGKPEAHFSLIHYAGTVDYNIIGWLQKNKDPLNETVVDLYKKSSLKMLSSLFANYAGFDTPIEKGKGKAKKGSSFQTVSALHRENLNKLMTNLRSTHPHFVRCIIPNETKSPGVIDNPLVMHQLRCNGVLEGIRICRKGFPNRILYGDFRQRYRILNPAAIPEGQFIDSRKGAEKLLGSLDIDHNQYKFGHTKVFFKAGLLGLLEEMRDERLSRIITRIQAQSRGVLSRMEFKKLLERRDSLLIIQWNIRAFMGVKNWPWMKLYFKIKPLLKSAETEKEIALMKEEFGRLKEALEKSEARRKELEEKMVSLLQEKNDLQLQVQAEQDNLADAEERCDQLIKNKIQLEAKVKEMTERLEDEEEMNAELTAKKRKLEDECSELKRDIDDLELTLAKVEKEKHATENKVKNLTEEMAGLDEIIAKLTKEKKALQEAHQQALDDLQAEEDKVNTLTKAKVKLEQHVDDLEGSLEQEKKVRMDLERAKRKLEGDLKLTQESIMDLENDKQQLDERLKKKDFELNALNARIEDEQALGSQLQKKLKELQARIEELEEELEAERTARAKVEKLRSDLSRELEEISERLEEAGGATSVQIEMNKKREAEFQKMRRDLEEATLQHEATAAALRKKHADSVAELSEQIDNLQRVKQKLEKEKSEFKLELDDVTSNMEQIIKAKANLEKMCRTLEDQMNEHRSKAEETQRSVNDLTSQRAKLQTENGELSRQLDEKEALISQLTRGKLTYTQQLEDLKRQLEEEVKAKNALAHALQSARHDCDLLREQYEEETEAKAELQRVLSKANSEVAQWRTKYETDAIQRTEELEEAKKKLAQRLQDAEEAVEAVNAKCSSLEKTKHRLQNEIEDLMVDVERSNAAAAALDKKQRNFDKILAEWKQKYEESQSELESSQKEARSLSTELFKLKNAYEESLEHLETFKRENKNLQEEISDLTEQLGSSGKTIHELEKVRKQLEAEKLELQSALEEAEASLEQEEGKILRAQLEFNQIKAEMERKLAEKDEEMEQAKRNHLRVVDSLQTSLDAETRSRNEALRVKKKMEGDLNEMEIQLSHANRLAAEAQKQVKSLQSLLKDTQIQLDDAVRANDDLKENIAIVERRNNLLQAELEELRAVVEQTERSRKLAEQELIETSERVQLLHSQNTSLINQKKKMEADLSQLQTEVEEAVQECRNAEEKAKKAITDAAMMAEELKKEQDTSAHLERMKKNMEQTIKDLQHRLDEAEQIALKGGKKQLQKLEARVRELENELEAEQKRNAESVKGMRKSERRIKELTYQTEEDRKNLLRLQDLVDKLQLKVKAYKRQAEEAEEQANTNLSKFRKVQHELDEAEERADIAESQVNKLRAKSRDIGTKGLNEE
Chain of bovine cardiac myosin (P85100 whole entry partner): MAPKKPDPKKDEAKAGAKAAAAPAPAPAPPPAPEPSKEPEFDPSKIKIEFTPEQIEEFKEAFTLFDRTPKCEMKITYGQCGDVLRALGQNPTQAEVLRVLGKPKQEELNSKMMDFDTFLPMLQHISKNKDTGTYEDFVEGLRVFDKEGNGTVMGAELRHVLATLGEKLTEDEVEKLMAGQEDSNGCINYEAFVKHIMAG
Chain of bovine cardiac myosin (Q3SZE5 whole entry partner): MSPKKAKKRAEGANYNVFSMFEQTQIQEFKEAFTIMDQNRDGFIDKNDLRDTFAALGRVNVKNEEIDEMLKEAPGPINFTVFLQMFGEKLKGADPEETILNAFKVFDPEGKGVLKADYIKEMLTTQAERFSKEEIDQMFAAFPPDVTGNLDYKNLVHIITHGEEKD

The target of data set [1] is bovine skinned cardiac myofibrils (myosin) (Bos taurus (Bovine), UniProt Q9BE39). Description: Myosin inhibitory potency comparison: ATPase assay, cardiac myofibrils. The data set is classed as biochemical. Particulars: pCa=6.25. The method, then:
(§1) In our experiments, bovine skinned cardiac myofibrils were isolated from the frozen bovine left ventricle as myosin's source in the ATPase assay. The calcium concentration that achieves a 50% (pCa50 or pCa=6.25) activation of the myofibril system was chosen as the final condition for assessing the activation activity according to the literature (DOI: 10.1074/jbc.M117.776815). Myofibrils ATPase activity was measured in a buffered solution containing 12 mM PIPES (piperazine-N, N′-bis(2-ethane sulfonic acid) and 2 mM magnesium chloride at pH 6.8 (PM12 buffer). Final assay conditions were 1 mg/mL of bovine cardiac myofibrils, 1:20 of stock PK/LDH (Sigma-Aldrich, Cat No. P0294-5X5ML), 50 μM ATP, 1 mM DTT (dithiothreitol), 0.75 mM NADH, 1.5 mM PEP at pCa50 (pCa=6.25). Compounds were dissolved in DMSO (dimethyl sulfoxide). Serial dilution of compounds was created such that the final desired concentration of compound would be achieved in a volume of 150 μL with a fixed DMSO concentration of 2% (v/v). 75 μL of a solution containing bovine cardiac myofibrils, PK/LDH, and calcium were added to a 96 well plate for a 7 point dose-response. In some circumstances, 10 point-response was used to repeat the ATPase assays on compounds of interest. Compounds were added to the myofibrils solution and incubated for 5 minutes. The enzymatic reaction was started with the addition of 75 μL of a solution containing ATP, PEP, NADH, compounds, and calcium. The ATPase activity was measured by reading absorbance at 340 nm in a PerkinElmer Victor Nivo plate reader at 25° C. in kinetic mode for 15 minutes using clear bottom plates. The slopes of the absorbance changes as a function of time for the first 10 minutes were normalized to slopes on the control wells containing all reagents, including DMSO, but without compounds. This normalized rate was then plotted as a function of small molecule concentration in GraphPad prism 9. The data were fitted to a four-parameter fit, and IC50 was calculated using Graphpad Prism 9.
(§2) Bovine skinned cardiac myofibrils were isolated from the frozen bovine left ventricle, and rabbit skinned skeletal myofibrils were isolated from the frozen rabbit Psoas major and minor muscles as myosin's source in the ATPase assay. The calcium concentration that achieves a 50% activation of the myofibril system (pCa=6.25 for bovine cardiac myofibrils and pCa=6 for rabbit skeletal myofibrils) was chosen as the final condition for assessing the activation activity according to the literature (DOI:10.1074/jbc.M117.776815). Rest of ATPase assay conditions are the same as illustrated in experiment 1.

Data set [2] has as its system rabbit skinned skeletal myofibrils (myosin). As to the kind of experiment: Myosin inhibitory potency comparison: ATPase assay, skeletal myofibrils. It counts as biochemical. Particulars: for Skeleta/Cardiac: ratio of skeletal IC50 to cardiac IC50. As for the experimental part:
as §1, §2

For data set [3], the system named is isolated rat ventricular myocytes. As to the kind of experiment: Cardiomyocyte contractility assay (sarcomere shortening, IonOptix). It counts as cell-based. Particulars: for Ratio of % FS 5 uM/15 uM: 5 uM versus 15 uM. As for the experimental part: The effects of compounds on sarcomere shortening in isolated rat ventricular myocytes were assessed using the IonOptix apparatus.
Myocytes were placed in a chamber mounted on the stage of an inverted microscope and continuously superfused with oxygenated Tyrode solution containing (in millimolar): 121 NaCl, 5 KCl, 2.8 NaCH3CO2, MgCl2·6H2O, Glucose, NaHCO3, Na2HPO4. 7H2O, and 1.5 mM CaCl2). Solution was preheated at 36±1° C. and electrical-field stimulated at 1 Hz by 2 platinum electrodes connected to a Myopacer field stimulator (IonOptix Corporation) with 4 ms square-wave bipolar pulses (10 V). Cells were illuminated by the microscope light. The cell image was collected by a x40 ultraviolet epifluorescence objective, diverted to the microscope side port, where the cell image was recorded by a charge coupled device (CCD) camera (MyoCam, IonOptix Corporation), converting optical brightness (pixels) into electrical signals (voltage). The MyoCam configuration allowed acquisition of up to 240 images per second (240 Hz frame rate). Contractile properties of the myocytes were analyzed in real time by a video detector and a personal computer-based data acquisition system (Ionwizard 6.0, IonOptix Corporation). Only myocytes with clear striations, quiescent prior to pacing with a resting sarcomere length greater or equal to 1.75 μm were used, since this is presumed to represent the lower limit for healthy cells.
Sarcomere shortening was monitored in control solution (predrug) until stable recordings were obtained (baseline period). To determine the response to compounds, myocytes were first superfused for 60 seconds with Tyrode's buffer followed by at least a 5 minute—(or until steady state was reached, up to 10 min) superfusion of compound. Each cell was subjected to 2 concentrations (5 and 15 uM or 5 and 10 uM) of test compounds. For some cells, a washout period was performed after the last concentration. Duration of the washout period was variable, resulting in variability in the washout data. In separate cells, a single concentration of isoproterenol (100 nM) was applied. Data were continuously recorded using the IonOptix software. Contractility data were analyzed using Ionwizard software (IonOptix). For each cell, 10-15 contractility transients at baseline and after treatment were averaged and compared.

Data set [4] in a line: Pharmacokinetic profiles in male SD rats (IV and PO). Particulars: IV 1 mg/kg, PO 5 mg/kg, route for this parameter not given; for clearance / half-life / Vd: rat, plasma; for Vd: read-out: VSS. It counts as in vivo, rat. As for the experimental part:
Pharmacokinetic profile of compounds were determined by IV (1 mg/Kg) and PO (5 mg/Kg) administrations in male SD rats. Compounds were administrated with free base and formulated in 5% DMAC+25% PEG-400+70%(30% 2-HP-β-CD in water). The compounds were dosed at 1 mg/kg for intravenous and 5 mg/kg oral administration. Blood samples were collected at 0, 0.083, 0.25, 0.5, 1, 2, 4, 8 and 24 hours post dose, serial bleeding for plasma for the IV group. Blood samples were collected at 0, 0.25, 0.5, 1, 2, 4, 6, 8 and 24 hours post dose, serial bleeding for the PO group. Approximately 150 μL whole blood/time point were collected in K2EDTA tube via jugular vein. Blood sample was put on ice and centrifuged at 2000 g for 5 min to obtain plasma sample within 15 minutes. PK parameters were estimated by non-compartmental model using WinNonlin 8.2.

The test system of data set [5] is heart function (cardiac contractility). As to the kind of experiment: Echocardiography assessment of acute pharmacodynamic effect in rat cardiac contractility. The data set is classed as in vivo. The following applies: Spraw-Dawley rats. As for the experimental part:
The Effect of Compounds on Heart Function was Determined by Echocardiography in Spraw-Dawley rats. Rats were under light anesthesia with 1-2% isoflurane. Compounds were dosed via oral gavage as single PO. Baseline heart functions were measured 1 day before dosing. The effect of compounds on heart function were measured at 1, 3, 6, and 24 hours post dosing. About 250 μL of whole blood was obtained at ˜1, 3, 6 and 24 hours post-dose via tail vein, immediately after the Echocardiography procedure. Blood was placed into a plasma separator tube containing K2 EDTA and kept on wet ice until processing. Blood samples were centrifuged at 2,000 g (4,400 rpm, Eppendorf 5417R) for 10 minutes at 4° C. Plasma samples were then transferred into micro-tubes and stored at −80° C. for future LC/MS analysis. The data were plotted as reduction of Fractional shortening vs plasma compound concentration. Therapeutic windows were determined as IC50/IC10 according to the literature (DOI: https://doi.org/10.1021/acs.jmedchem.1c01290).

[6] abbreviates: rat ventricular myocytes, paced at 1 Hz.

Chain of bovine skinned cardiac myofibrils (myosin) (Q9BE39 whole entry): as the sequence (Q9BE39 whole entry) above
Chain of bovine skinned cardiac myofibrils (myosin) (P85100 whole entry partner): as the sequence (P85100 whole entry partner) above
Chain of bovine skinned cardiac myofibrils (myosin) (Q3SZE5 whole entry partner): as the sequence (Q3SZE5 whole entry partner) above

On to `C[C@H](Nc1nc(=O)n(C2CCOCC2)c(=O)[nH]1)c1ccc(OC(F)(F)F)cc1` [Example 152], for which the half-inhibitory concentration (IC50) at bovine cardiac myosin turned out to be 1210 nM. The IC50 in data set [1] stood at 1790 nM. Also, the Skeleta/Cardiac in data set [2] stood at 2.39. In data set [3], the “Ratio of % FS 5 uM/15 uM” value turned out to be 2.4. Moreover, in data set [3] (setting [6]), the “% FS (% reduction from baseline) at 5 uM” value is reported as 62.9 +/− 6.2% and the “% FS (% reduction from baseline) at 15uM” value is on record as 26.7 +/− 6.4%.

Take `C[C@H](Nc1nc(=O)n(C2CCOCC2)c(=O)[nH]1)c1ccc(F)cc1F` [Example 10]: the IC50 at bovine cardiac myosin amounted to 1840 nM. This molecule yielded an IC50 in data set [1] of 1500 nM. In addition, in data set [2], the “cardiac-skeletal myosin selectivity (in words)” value was “better cardiac-skeletal myosin selectivity” and the Skeleta/Cardiac was found to be 29.01. The “potency in inhibiting fast skeletal myofibril activity (in words)” value in data set [2] (compared with cardiac myofibrils) is “way less potent”. For the same molecule, the “Ratio of % FS 5 uM/15 uM” value in data set [3] turned out to be 1.2. Further, in data set [3] (setting [6]), the “% FS (% reduction from baseline) at 5 uM” value was 51 +/− 6% and the “% FS (% reduction from baseline) at 15uM” value was 41.5 +/− 6.3%. Also, in data set [4], the DNAUC is 1724.7 ng·h/mL, the clearance was 9.17 mL/min/kg, the half-life was 4.51 h and the Vd stood at 1.78 L/kg. Further, in data set [5] (single PO, 20 mpk), the “effect on heart contractility at 20 mpk (FIG. 2)” value is “do not further inhibit heart contractility at 20 mpk”. For the same molecule, in data set [5] (single PO, up to 10 mpk), the “effect on heart contractility, dose dependence (FIG. 2)” value is recorded as “dose dependent under 10 mpk”. Further, in data set [5] (therapeutic window as IC50/IC10), the “therapeutic window, plasma exposure vs fractional shortening (in words)” value was “superior therapeutic windows”.

As for `CC(C)n1c(=O)nc(N[C@@H](C)C2CCCCC2)[nH]c1=O` [Example 45], the half-inhibitory concentration (IC50) on bovine cardiac myosin amounted to 2800 nM; in data set [1], 7580 nM. The Skeleta/Cardiac in data set [2] came out at 5.36.

Take `Cc1cccc([C@H](C)Nc2nc(=O)n(C3CCOCC3)c(=O)[nH]2)c1` [Example 4]: in data set [1], half-maximal inhibition (IC50) required 660 nM. Also, the “Ratio of % FS 5 uM/10 uM” value in data set [3] (5 uM versus 10 uM (cell marked *)) is given as 1.7*. Also, the “% FS (% reduction from baseline) at 5 uM” value in data set [3] (setting [6]) was 71.2 +/− 7.6%. In addition, the “% FS (% reduction from baseline) at 10 uM” value in data set [3] (10 uM (cell marked *), rat ventricular myocytes, paced at 1 Hz) is recorded as 42.4 +/− 4.2* %. In addition, in data set [4], the DNAUC worked out at 2299.6 ng·h/mL, the clearance is 5.5 mL/min/kg, the half-life was 3.35 h and the Vd was found to be 1.17 L/kg.
